Where “and” joins values, the source holds several entries; their conditions need not be identical. Identical values can stand only once.

human P2X3 receptor, sequence (P56373 whole entry): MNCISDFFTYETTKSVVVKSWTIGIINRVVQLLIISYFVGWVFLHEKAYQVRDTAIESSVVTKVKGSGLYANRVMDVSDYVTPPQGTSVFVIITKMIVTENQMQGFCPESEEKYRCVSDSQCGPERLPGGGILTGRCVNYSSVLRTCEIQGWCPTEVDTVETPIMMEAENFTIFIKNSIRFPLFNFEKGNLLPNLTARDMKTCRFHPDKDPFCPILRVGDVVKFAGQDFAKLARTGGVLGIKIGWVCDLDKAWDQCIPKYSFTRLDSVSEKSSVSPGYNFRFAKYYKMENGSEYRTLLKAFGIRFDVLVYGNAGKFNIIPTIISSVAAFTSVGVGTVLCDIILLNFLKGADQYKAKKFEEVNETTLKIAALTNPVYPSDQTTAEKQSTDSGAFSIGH

The first assay concerns the target human P2X3 receptor (Homo sapiens (Human), UniProt P56373). The experiment in a line: Evaluation of human P2X3 receptor inhibitory activity (Fluo-3 calcium fluorescence, FDSS 3000, ATP stimulation).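 Also: stimulus was 50 nM ATP with fluorescence followed for 3 min, and the response per well was peak post-ATP fluorescence divided by the reading at measurement start.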 The class given is cell-based. Particulars: C6BU-1 cells stably expressing human P2X3 receptor.
As usually defined, the IC50 is the concentration that gives 50% inhibition. For the molecule `CCOC(=O)c1nc(Cn2c(=O)[nH]/c(=N\c3ccc(OC(C)C)c(C)c3)n(Cc3ccc(Cl)cc3)c2=O)cs1` [Compound I-0785], the half-maximal inhibitory concentration (IC50) is 11 nM.
Regarding `C=Cc1cc(/N=c2\[nH]c(=O)n(CCC(=O)O)c(=O)n2Cc2ccc(C)cc2)ccc1OC(C)C` [Compound I-1192], the half-maximal inhibitory concentration (IC50) is 20 nM.
As to `CC(C)Oc1ccc(/N=c2\[nH]c(=O)n(CCNC(=N)N)c(=O)n2Cc2ccc(Cl)cc2)cc1F` [Compound I-0659, 1-(4-chlorobenzyl)-6-(3-fluoro-4-isopropoxyphenylimino)-3-(4-imino-4-amino-3-azabutyl)-1,3,5-triazinane-2,4-dion], the IC50 was found to be 134 nM.
As to `CC1CCC(Cn2c(=O)n(CCC(N)=O)c(=O)[nH]/c2=N\c2ccc(OC(C)C)c(Cl)c2)CC1` (stereo not drawn) [Compound I-2020], the IC50 is 6 nM.
As to `CCn1c(=O)[nH]/c(=N\c2ccc(Oc3ccnc(C(=O)OC)c3)cc2)n(Cc2ccc(Cl)cn2)c1=O` [Compound I-2186], the IC50 amounted to 104 nM.
In the case of `CC(C)Oc1ccc(/N=c2\[nH]c(=O)n(C(C)(C)C(=O)O)c(=O)n2Cc2ccc(Cl)cc2)cc1Cl` [Compound I-0651], the IC50 came to 97 nM.
Turning to `CCOC(=O)c1csc(Oc2ccc(/N=c3\[nH]c(=O)n(CC)c(=O)n3Cc3ccc(Cl)cc3)cc2)n1` [Compound I-2191], the IC50 came out at 5 nM.
Take `Cc1cc(/N=c2\[nH]c(=O)n(CC[C@H](N)C(=O)O)c(=O)n2Cc2ccc(Cl)cc2)ccc1OC(C)C` [Compound I-0736, (S)-1-(4-chlorobenzyl)-3-(3-amino-3-hydroxycarbonylpropyl)-6-(3-mehyl-4-isopropoxyphenylimino)-1,3,5-triazinane-2,4-dion]: the IC50 amounted to 131 nM.
On the same count and under the same terms, for `CCOc1ccc(/N=c2\[nH]c(=O)n(C[C@H](C)C(=O)OC)c(=O)n2Cc2ccc(C)cc2)cc1F` [Compound I-0605] the value was 25 nM; for `Cc1ccc(Cn2c(=O)n(C[C@H](C)C(=O)O)c(=O)[nH]/c2=N\c2ccc3nc(C)sc3c2)cc1` [Compound I-1473], 12 nM.
On to `COC(=O)[C@@H]1CC(n2c(=O)[nH]/c(=N\c3ccc(OC(C)C)c(C)c3)n(Cc3ccc(Cl)cc3)c2=O)CN1C(=O)OC(C)(C)C` (stereo partly drawn) [Compound I-0699], for which the IC50 was 37 nM.
Regarding `Cc1oc2ccc(/N=c3\[nH]c(=O)n(CC4COC(C)(C)OC4)c(=O)n3Cc3ccc(Cl)cc3)cc2c1C` [Compound I-2071], the IC50 was determined as 8 nM.
Turning to `CCCOc1ccc(/N=c2\[nH]c(=O)n(C[C@H](C)C(=O)O)c(=O)n2Cc2ccc(Cl)cc2)cc1Cl` [Compound I-0747], the IC50 is 12 nM.
For the molecule `CC(C)Oc1ccc(/N=c2\[nH]c(OCC(=O)N(C)CCO)nc(=O)n2Cc2ccc(Cl)cc2)cc1F` [Compound I-0586], the IC50 came to 611 nM.
Turning to `CCn1c(=O)[nH]/c(=N\c2ccc(Oc3nccc(OC)n3)cc2)n(Cc2ccc(Cl)cc2)c1=O` [Compound I-2096], the half-maximal inhibitory concentration (IC50) was found to be 35 nM.
Turning to `O=c1[nH]/c(=N\c2ccc(OC3CCC3)cc2)n(Cc2ccc(Cl)cc2)c(=O)n1CC(CO)CO` [Compound I-1974], the IC50 was found to be 7 nM.
Turning to `CC(C)Oc1ccc(/N=c2\[nH]c(=O)n(CC(C)(C)C(=O)O)c(=O)n2Cc2ccc(Cl)cc2)cc1CO` [Compound I-1431], the IC50 worked out at 242 nM.
In the case of `Cc1ccc(Cn2c(=O)n(CCC(=O)O)c(=O)[nH]/c2=N\c2ccc(CC(C)C)c(F)c2)cc1` [Compound I-1299], the IC50 came out at 51 nM.
`C[C@@H](Cn1c(=O)[nH]/c(=N\c2ccc3oc(C(=O)O)cc3c2)n(Cc2ccc(Cl)cc2)c1=O)C(=O)O` [Compound I-1952]: the half-maximal inhibitory concentration (IC50) was determined as 781 nM.
Take `CC(C)Oc1ccc(/N=c2\[nH]c(=O)n(C[C@@H](O)CO)c(=O)n2Cc2ccc(Cl)cc2)cc1Cl` [Compound I-0616]: the IC50 is 10 nM.
As to `COc1cc(/N=c2\[nH]c(=O)n(C[C@H]3COC(C)(C)O3)c(=O)n2Cc2ccc(Cl)cc2)ccc1OC(C)C` [Compound I-2001], the 50% inhibitory concentration (IC50) is 5 nM.
For `CCOC(=O)CCCn1c(=O)[nH]/c(=N\c2ccc(Oc3ccncc3)cc2)n(Cc2ccc(C)cc2)c1=O` [Compound I-1238], the IC50 was found to be 2 nM.

The assay is the same for the next values; noted with them: C6BU-1 cells stably expressing human P2X3 receptor, Fluo-3 fluorescence, FDSS 3000.
`CCOC(=O)CCn1c(=O)[nH]/c(=N\c2ccc(O[C@H](C)CC)c(C)c2)n(Cc2ccc(C)cc2)c1=O` [Compound I-1019]: the 50% inhibitory concentration (IC50) was found to be 7 nM.
Regarding `CCn1c(=O)[nH]/c(=N\c2ccc(Oc3ccc(OC)nc3)cc2)n(Cc2ccc(Cl)cc2)c1=O` [Compound I-1847], the IC50 worked out at 6 nM.
Take `CCc1nc2ccc(/N=c3\[nH]c(=O)n(CCCC(N)=O)c(=O)n3Cc3ccc(Cl)cc3)cc2s1` [Compound I-1711]: the IC50 was found to be 5 nM.
In the case of `CCCc1nc2ccc(/N=c3\[nH]c(=O)n(CCC(=O)OCC)c(=O)n3Cc3ccc(C)cc3)cc2s1` [Compound I-1558], the half-inhibitory concentration (IC50) was determined as 8 nM.
Still for that read-out and setting: for `C[C@@H](C(=O)O)[C@H](C)n1c(=O)[nH]/c(=N\c2ccc3c(c2)CCC3=O)n(Cc2ccc(Cl)cc2)c1=O` [Compound I-1830] the value was 869 nM.
Take `COC(=O)[C@@H](C)Cn1c(=O)[nH]/c(=N\c2ccc(OCCC(C)C)cc2)n(Cc2ccc(C)cc2)c1=O` [Compound I-1049]: the half-inhibitory concentration (IC50) turned out to be 177 nM.
Same read-out and setting: for `CC(C)n1c(=O)nc(Nc2ccc3oc(=O)[nH]c3c2)n(Cc2ccc(Cl)cc2)c1=O` [Compound I-0249] the value was 953 nM.
Take `CC(C)Oc1ccc(/N=c2\[nH]c(=O)n([C@@H](C)[C@@H](C)C(=O)O)c(=O)n2Cc2ccc(Cl)cc2)cc1Cl` [Compound I-0923]: the 50% inhibitory concentration (IC50) was 15 nM.
For `CCC(CC)Oc1ccc(/N=c2\[nH]c(=O)n(C[C@H](C)C(=O)O)c(=O)n2Cc2ccc(C)cc2)cc1` [Compound I-1062], the 50% inhibitory concentration (IC50) was 37 nM.
Regarding `CCn1c(=O)[nH]/c(=N\c2ccc3nc(C)sc3c2)n(Cc2ccc(Cl)cc2)c1=O` [Compound I-1702], the IC50 is 4 nM.
The same measure, in the same setting: for `C[C@@H](C(=O)O)[C@H](C)n1c(=O)[nH]/c(=N\c2ccc3ncsc3c2)n(Cc2ccc(Cl)cc2)c1=O` [Compound I-1589] the value was 158 nM.
Regarding `Cc1ccc(Cn2c(=O)n(C[C@H](C)C(=O)O)c(=O)[nH]/c2=N\c2ccc(C3=CCCC3)cc2)cc1` [Compound I-1114], the 50% inhibitory concentration (IC50) is 214 nM.
On the same count and under the same terms, for `Cc1nc2ccc(/N=c3\[nH]c(=O)n(C[C@H]4COC(C)(C)O4)c(=O)n3Cc3ccc(Cl)cc3)cc2s1` [Compound I-1603] the value was 5 nM; for `COC(=O)[C@@H](C)Cn1c(=O)[nH]/c(=N\c2ccc(OC3CCCC3)cc2)n(Cc2ccc(C)cc2)c1=O` [Compound I-1186], 33 nM.
Same read-out and setting: next, `Cc1nc2ccc(/N=c3\[nH]c(=O)n(CCC(N)=O)c(=O)n3Cc3ccc(Cl)cc3)cc2s1` [Compound I-1670]: 7 nM.
With `Cc1ccc(Cn2c(=O)n(C[C@H](C)C(=O)O)c(=O)[nH]/c2=N\c2ccc(N3CCCC3)cc2)cc1` [Compound I-1091], the half-maximal inhibitory concentration (IC50) is 179 nM.
The same measure, in the same setting: next, `Cc1cc(/N=c2\[nH]c(=O)n(C[C@H](C)C(=O)O)c(=O)n2Cc2ccc(Cl)cc2)ccc1CC(C)C` [Compound I-0949]: 8 nM and 21 nM; `CCc1oc2ccc(/N=c3\[nH]c(=O)n(CCCNC(=O)C(F)(F)F)c(=O)n3Cc3ccc(Cl)cc3)cc2c1C` [Compound I-1567]: 12 nM.
Regarding `COC(=O)[C@@H](C)Cn1c(=O)nc(Cc2ccccc2C)n(Cc2ccc(Cl)cc2)c1=O` [Compound I-1865], the IC50 was 357 nM.

Staying with this assay, now noted: human P2X3 receptor, Test Example 1.
In the case of `CCn1c(=O)[nH]/c(=N\c2ccc(Oc3cncc(C(=O)OC)n3)cc2)n(Cc2ccc(Cl)cc2)c1=O` [Compound I-2270], the IC50 is below 4 nM.
On to `Cc1ccc(Cn2c(=O)n(C[C@H](O)CO)c(=O)[nH]/c2=N\c2ccc(Oc3ccon3)cc2)cc1` [Compound I-2510], for which the IC50 was determined as 10 nM.
With `CNC(=O)Cn1c(=O)[nH]/c(=N\c2ccc(Oc3cccc(F)n3)cc2)n(Cc2ccc(Cl)cc2)c1=O` [Compound I-2585], the IC50 stood at 8 nM.
Consider `Cc1ccc(Cn2c(=O)n(C)c(=O)[nH]/c2=N\c2ccc(Oc3nccc(C(=O)O)n3)cc2)cc1` [Compound I-2403], for which the 50% inhibitory concentration (IC50) turned out to be 61 nM.
Regarding `CCn1c(=O)[nH]/c(=N\c2cccc(Oc3cccc(C(=O)O)n3)c2)n(Cc2ccc(Cl)cc2)c1=O` [Compound I-2592], the half-inhibitory concentration (IC50) worked out at 350 nM.
As to `CCn1c(=S)[nH]/c(=N\c2ccc(Oc3cncc(C(=O)OC)c3)cc2)n(Cc2ccc(Cl)cc2)c1=O` [Compound I-2262, 1-(4-chlorobenzyl)-3-ethyl-6-[4-(5-methoxycarbonyl-3-pyridyloxy)phenylimino]-4-thioxo-1,3,5-triazinane-2-one], the concentration for half-maximal inhibition (IC50) was 17 nM.
Regarding `C[C@@H](C(N)=O)n1c(=O)[nH]/c(=N\c2ccc(Oc3ccon3)cc2)n(Cc2ccc(Cl)cc2)c1=O` [Compound I-2501], the IC50 is 57 nM.
Turning to `N#Cc1ccc(Oc2ccc(/N=c3\[nH]c(=O)n(C[C@@H](O)CO)c(=O)n3Cc3ccc(Cl)cc3)cc2)cc1` [Compound I-2560], the concentration for half-maximal inhibition (IC50) worked out at 5 nM.
As for `CCOC(=O)CCn1c(=O)[nH]/c(=N\c2ccc(OCC)c(Cl)c2)n(Cc2ccc(C)cc2)c1=O` [Compound I-0867], the IC50 was found to be 6 nM.
As for `CCn1c(=O)[nH]/c(=N\c2ccc(Sc3nc[nH]n3)cc2)n(Cc2ccc(Cl)cc2)c1=O` [Compound I-2598], the 50% inhibitory concentration (IC50) turned out to be 341 nM.
For the molecule `O=c1[nH]/c(=N\c2ccc(Oc3ccon3)cc2)n(Cc2ccc(Cl)cc2)c(=O)n1CCCO` [Compound I-2358], the IC50 was found to be 6 nM.
For the molecule `CCn1c(=O)[nH]/c(=N\c2ccc(Oc3ncccc3C#N)cc2)n(Cc2ccc(Cl)cc2)c1=O` [Compound I-2345], the IC50 came out at 20 nM.
Consider `Cc1cccc(Oc2ccc(/N=c3\[nH]c(=O)n(CC(CO)CO)c(=O)n3Cc3ccc(Cl)cc3)cc2)n1` [Compound I-2610], for which the IC50 was found to be 12 nM.
Same read-out and setting: for `Cn1c(=O)[nH]/c(=N\c2ccc(Oc3nccc(C(N)=O)n3)cc2)n(Cc2ccc(Cl)cc2)c1=O` [Compound I-2380] the value was 29 nM.
The same measure, in the same setting: next, `Cc1ccc(Cn2c(=O)n(C[C@H](C)C(=O)O)c(=O)[nH]/c2=N\c2ccc(OC3CC3)cc2)cc1` [Compound I-1516]: 49 nM.
On to `COC(=O)/C=C/c1cccc(Oc2ccc(/N=c3\[nH]c(=O)n(C)c(=O)n3Cc3ccc(C)cc3)cc2)c1` [Compound I-2328], for which the concentration for half-maximal inhibition (IC50) came to 34 nM.
